As a reminder, the EC50 is the concentration needed to bring the measured effect to its halfway point. Low values mean higher potency in that assay, high ones lower potency in that assay. For orientation: fraction remaining means what is left of the initial amount, in per cent. A high value points to greater stability.

Where no end group is shown, it is not given here. [ ]: non-standard residue; d: D form. Oic = O=C(O)[C@@H]1C[C@@H]2CCCC[C@@H]2N1; Phe(4-Cl) = N[C@@H](Cc1ccc(Cl)cc1)C(=O)O; hArg = N=C(N)NCCCC[C@H](N)C(=O)O; Cha = N[C@@H](CC1CCCCC1)C(=O)O; Nle = CCCC[C@H](N)C(=O)O; Mpa = O=C(O)CCS A value given as a limit tells only on which side of the number the result lay.

One series has as its target T1, human APJ (Homo sapiens, UniProt P35414).
T1 construct: expressed in transfected cells
T1 sequence (P35414 1-380): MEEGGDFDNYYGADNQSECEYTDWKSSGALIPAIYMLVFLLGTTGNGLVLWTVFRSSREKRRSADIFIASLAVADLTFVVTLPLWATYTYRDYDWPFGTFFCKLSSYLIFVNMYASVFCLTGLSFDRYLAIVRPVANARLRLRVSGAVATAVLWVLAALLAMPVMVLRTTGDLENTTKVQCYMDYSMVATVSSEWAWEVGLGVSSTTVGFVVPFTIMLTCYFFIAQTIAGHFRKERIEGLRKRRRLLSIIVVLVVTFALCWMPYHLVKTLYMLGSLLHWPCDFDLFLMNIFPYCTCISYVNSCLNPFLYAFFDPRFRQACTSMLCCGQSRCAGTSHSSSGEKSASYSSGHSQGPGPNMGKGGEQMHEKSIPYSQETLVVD
Nature of the series: cAMP assay, stable CHO cell line expressing human APJ. It counts as cell-based. The following applies: FIG. 5; cAMP seen with either human or rat APJ stable cell lines. The procedure:
Stable CHO cell lines expressing APJ were used for cAMP assays. The cells were incubated with stimulation buffer containing HANK's buffer, forskolin and 0.5 mM IBMX in the absence or presence of various concentrations' of peptides at 37° C. for 45 min. The cAMP level was determined using a cyclic AMP kit (DiscoverX) according to the manufacturer's instructions.

The target of the next series is T2, rat APJ receptor (Rattus norvegicus, UniProt Q9JHG3).
T2 construct: expressed in transfected cells; CHO is named only for the cAMP assay
T2 sequence (Q9JHG3 1-377): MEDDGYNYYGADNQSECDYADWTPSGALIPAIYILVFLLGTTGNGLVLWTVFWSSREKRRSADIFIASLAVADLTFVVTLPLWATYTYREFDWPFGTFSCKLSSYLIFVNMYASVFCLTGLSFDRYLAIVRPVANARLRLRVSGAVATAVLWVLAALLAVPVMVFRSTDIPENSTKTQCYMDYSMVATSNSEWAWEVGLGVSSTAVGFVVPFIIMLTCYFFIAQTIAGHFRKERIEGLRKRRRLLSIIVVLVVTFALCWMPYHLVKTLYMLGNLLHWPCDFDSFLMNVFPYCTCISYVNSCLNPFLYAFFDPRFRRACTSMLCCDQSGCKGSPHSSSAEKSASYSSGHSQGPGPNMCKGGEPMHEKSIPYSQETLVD
Put plainly: [35S]GTPγS assay, membranes from stable cell lines, rat APJ. It counts as biochemical. As to conditions: FIG. 10; effect of PEG size (20 kDa vs 40 kDa). As for the experimental part:
To assay for GTP, membranes were prepared from stable cell lines and used to determine the efficacy/potency of the modified peptides. The optimal experimental conditions for the concentrations of GDP, MgCl2 and NaCl in the assay buffer were initially determined. The membranes were incubated with modified peptides in the assay buffer. The reaction was initiated by addition of [^35S] GTPγS in the absence or presence of peptides and incubated at room temperature for 90 min. […] Bound [^35S] GTPγS was separated from free radiolabel by filtration. The filter bound radioactivity was determined by liquid scintillation counting.
A series of PEGylated peptides were prepared and screened in vitro to explore the effects of PEG size and peptide valency on potency and efficacy in the GTPγS assay. In the assay 20 kDA and 40 kDA PEG were compared (FIG. 10).
Additionally mono- and multivalent bis, and tetrakis-peptide conjugated PEGS were prepared to explore peptide valency. […]
(Binding of GTPγS marks nucleotide exchange on a G protein.)

Series [1] relates to isolated Langendorff rat heart. Nature of the series: Langendorff isolated rat heart, hemodynamic cardiac function. The following applies: control rats, FIGS. 7 and 8. The source says: To assess the hemodynamic cardiac function of the peptides a Langendorff isolated heart system was used. The isolated heart from rat provides broad spectrum of measurements that can include biochemical, metabolic, morphological and physiological indices. The limitations/advantages of the method include absence of neurohormonal influences, neural regulation and high coronary flows. Such limitations, however, are offset by the ability to study direct cardiac effects without systemic circulation and a host of peripheral interactions.
The reproducibility and accuracy of measurements and relatively low costs over in vivo studies for profiling drugs outweigh any limitations of this method. Therefore, this method provides excellent dose-response relationship and sheds critical insight into the pharmacological and physiological properties of the molecules of interest.
The animals were anesthetized upon administration of 50-100 mg/kg dose of sodium pentobarbital for rat via the intraperitoneal route. The heart was excised and gently cradled between fingers to avoid injury followed by lifting slightly before incising the aorta, vena cava and pulmonary vessels Immediately after excision of the heart with aorta, the heart was mounted onto the cannula in the Langendorff apparatus via the aorta. The heart was perfused with modified oxygenated Krebs-Henseleit buffer pH7.5 and equilibrated with 95% O2/5% CO2 at 37° C. The perfusion was performed at a constant flow of 10 ml/min and paced at 300 bpm. The pressure was measured through a pressure sensing balloon catheter inserted in the LV cavity. The intrinsic inotropy (force of muscle contraction) and lusitropy (cardiac relaxation) effects of the heart were assessed by dp/dtmax and dp/dtmin.
These figures illustrate improvement in both systolic and diastolic function of normal hearts with peptides of SEQ ID NOs: 23 and 24.

A further series in a line: in vitro. As to conditions: rat, plasma.
For series [2] the following is noted: background statement; cited from earlier work.
Series [3] in a line: In vitro plasma stability of apelin peptides (Table 15; plasma species not given). It counts as in vitro ADME. The following applies: 5 μM in plasma, 37° C. The source says: (metabolite data not shown).
The target of series [4] is T3, APJ receptor (Rattus norvegicus, UniProt Q9JHG3).
T3 construct: expressed in transfected cells; CHO is named only for the cAMP assay
T3 sequence (Q9JHG3 whole entry, looked up): T2 sequence (Q9JHG3 1-377)
Put plainly: EC50. The source says: Table printed on a drawing sheet, FIGURE 11
The patent's description of the figure: FIG. 11. Effects of peptide valency on in vitro activity.
First copying reader's note: The sheet prints no unit for the EC50 column; the plot under the table ([35S]GTPγS binding, rAPJ stable cell line) is not copied.

In a further series the test system is isolated cardiomyocyctes. As to conditions: isolated cardiomyocytes; Barnes et al.; cited from earlier work.
Series [5] has as its target APJ receptor. Nature of the series: EC50 IP (µM). The source says:
Table printed on a drawing sheet, FIGURE 3B
Head of the field: EC50 IP (µM)
Section band inside the table: Peptides with 525 Da PEG modification
The patent's description of the figure: FIGS. 3A-C.
First copying reader's note: Row 2 is a section heading spanning all columns; blanks inside names and sequences only mark line breaks within the printed cell.
Where the first naming reader finds the target: passage: An “APJ agonist” should be understood to refer to a molecule that is able to activate the APJ receptor.

As for “3-(1-(2-(mPEG(20kDa))ethyl)-1H-1,2,3-triazol-4-yl)alanine-[hArg68;Cha69;Oic74;Nle75;4-Cl-F77]Apelin-17(61-77) [SEQ ID NO: 25]”, on human APJ, the “agonist activity relative to pyr apelin-13 (SEQ ID NO: 128)” value is “potent and act as a full agonist”.

On to “3-((2-(3-(mPEG(20kDa))propylamino)-2-oxoethyl)thio)propanamide-[hArg68;Cha69;Oic74;Nle75;4-Cl-Phe77]Apelin-17(61-77) [SEQ ID NO: 24]”, for which the “agonist activity relative to pyr apelin-13 (SEQ ID NO: 128)” value on human APJ is “potent and act as a full agonist”. Moreover, it took 252 pM to reach a half-maximal effect at rat APJ receptor (EC50). In [1], the dp/dtmax result is listed as “dose dependent increase”, the dp/dtmin result was “decrease” and the systolic pressure entry was “increases”.

The compound `CSCC[C@H](NC(=O)[C@@H]1CCCN1C(=O)CNC(=O)[C@H](CCCCN)NC(=O)[C@H](Cc1cnc[nH]1)NC(=O)[C@H](CO)NC(=O)[C@H](CC(C)C)NC(=O)[C@H](CCCNC(=N)N)NC(=O)[C@@H]1CCCN1C(=O)[C@H](CCCNC(=N)N)NC(=O)[C@@H](N)CCC(N)=O)C(=O)N1CCC[C@H]1C(=O)N[C@@H](Cc1ccccc1)C(=O)O` [Apelin-13] had a share remaining at 0.25 h, 5 μM in the series “in vitro” of 0.1%. Moreover, the plasma half-life in series [2] was below 5 min. Also, the “in vitro plasma stability, % at 15 minutes” value in series [3] is 0.1%.

As for “SEQ ID NO: 130: 20 kDa PEG-bis(Atz-KFRRQRP[hArg][Cha]SHKG[Oic][Nle]P[4-Cl—F]) (KFRRQRP[hArg][Cha]SHKG[Oic][Nle]P[Phe(4-Cl)]; not fully specified (N-terminus); also: 20 kDa PEG carries two peptide copies)”, the EC50 in the series with APJ receptor [4] was 407 pM.

In the case of “SEQ ID NO: 131: 20 kDa PEG-tetrakis(Atz-KFRRQRP[hArg][Cha]SHKG[Oic][Nle]P[4-Cl—F]) (KFRRQRP[hArg][Cha]SHKG[Oic][Nle]P[Phe(4-Cl)]; not fully specified (N-terminus); also: 20 kDa PEG carries four peptide copies)”, the EC50 with APJ receptor [4] was 794 pM.

Regarding apelin, the “increase in sarcomere shortening” value in the series on isolated cardiomyocyctes is “up to 140%”.

Compound “{Hydrogen}[PE]RP[hArg][Cha][Pra(NPeg9) ]HKG[Oic][Nle][4-Cl-F]{FreeAcid}” showed an EC50 on APJ receptor [5] of 133000 pM.

Turning to “{Thiopropionyl(20K-mPEG)}LLRP[hArg][Cha]SHKG[Oic][Nle]P[4-Cl—F]{FreeAcid} ({mPEG 20 kDa}-[Mpa]LLRP[hArg][Cha]SHKG[Oic][Nle]P[Phe(4-Cl)]-OH) [SEQ ID NO: 124]”, the “agonist activity relative to pyr apelin-13 (SEQ ID NO: 128)” value with human APJ was “potent and act as a full agonist”.

Values taken from patent US20160067347A1, “APJ RECEPTOR AGONISTS AND USES THEREOF” (AMGEN INC., priority 2012, published 2016).
